Source: ChEMBL document CHEMBL1201862, “PubChem BioAssay data set” (2004)
Active and inactive are the calls of the source.

Assays:
[1] = HIV-1 Vif–A3G interaction blockers – biochemical, TR-FRET, GST-Vif 1-94, biotin-A3G peptide, dose response retest, primary screen (AID 1117319); format: functional;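 further: TR-FRET signal of purified GST-Vif binding a biotinylated A3G peptide; inhibitors lower the FRET signal by blocking Vif and A3G binding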
[2] = target: T1, Rac GTPase-activating protein 1 (Homo sapiens, UniProt Q9H0H5); assay: blockers of MgcRacGAP-driven Rac1 GTP hydrolysis – biochemical, ADP Hunter fluorescence, primary and confirmatory, confirmation (AID 624330); format: functional
T1 sequence (Q9H0H5 whole entry): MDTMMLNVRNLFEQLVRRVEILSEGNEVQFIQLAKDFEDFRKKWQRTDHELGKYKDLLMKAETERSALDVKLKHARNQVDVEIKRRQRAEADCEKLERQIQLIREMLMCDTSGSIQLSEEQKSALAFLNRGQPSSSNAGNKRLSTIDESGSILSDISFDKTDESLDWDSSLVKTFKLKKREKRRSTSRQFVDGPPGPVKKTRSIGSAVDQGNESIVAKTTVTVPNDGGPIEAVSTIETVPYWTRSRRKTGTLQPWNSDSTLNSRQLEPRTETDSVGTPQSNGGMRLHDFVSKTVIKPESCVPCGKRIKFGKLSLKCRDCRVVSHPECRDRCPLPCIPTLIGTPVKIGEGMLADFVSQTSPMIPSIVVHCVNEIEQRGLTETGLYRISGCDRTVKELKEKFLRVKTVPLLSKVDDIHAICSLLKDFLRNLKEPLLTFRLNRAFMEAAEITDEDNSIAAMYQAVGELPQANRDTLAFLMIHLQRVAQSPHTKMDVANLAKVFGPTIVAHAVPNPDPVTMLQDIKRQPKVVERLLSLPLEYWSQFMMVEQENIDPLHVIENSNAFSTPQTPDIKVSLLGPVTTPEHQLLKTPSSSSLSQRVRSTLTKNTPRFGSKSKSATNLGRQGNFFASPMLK

[3] = target: T2, Leucine aminopeptidase (Plasmodium falciparum 3D7, UniProt Q8IL11); assay: P. falciparum M17LAP inhibitors, primary screen, biochemical, fluorogenic H-Leu-NHMec substrate, 1536-well (AID 1619); format: functional
T2 sequence (Q8IL11 whole entry): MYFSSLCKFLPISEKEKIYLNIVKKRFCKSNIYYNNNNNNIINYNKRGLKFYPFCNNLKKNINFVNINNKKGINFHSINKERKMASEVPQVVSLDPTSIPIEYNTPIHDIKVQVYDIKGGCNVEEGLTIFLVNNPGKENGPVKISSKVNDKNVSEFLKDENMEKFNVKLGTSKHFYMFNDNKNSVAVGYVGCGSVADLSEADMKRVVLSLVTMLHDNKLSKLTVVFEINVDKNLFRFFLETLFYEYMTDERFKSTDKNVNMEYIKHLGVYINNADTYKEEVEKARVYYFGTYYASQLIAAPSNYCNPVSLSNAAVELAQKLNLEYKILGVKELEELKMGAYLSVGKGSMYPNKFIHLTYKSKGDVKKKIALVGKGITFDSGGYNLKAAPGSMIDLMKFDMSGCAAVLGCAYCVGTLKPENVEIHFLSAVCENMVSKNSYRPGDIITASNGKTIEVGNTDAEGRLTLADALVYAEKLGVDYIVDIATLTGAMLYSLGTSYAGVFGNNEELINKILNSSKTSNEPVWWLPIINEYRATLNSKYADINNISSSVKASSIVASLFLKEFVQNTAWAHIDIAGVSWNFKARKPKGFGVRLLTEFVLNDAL

[4] = target: T3, Mannose-6-phosphate isomerase (Homo sapiens, UniProt P34949); assay: MPI inhibition at elevated mannose 6-phosphate – biochemical, fluorescence intensity, high mannose 6-phosphate, primary screen (AID 1220)
T3 sequence (P34949 whole entry): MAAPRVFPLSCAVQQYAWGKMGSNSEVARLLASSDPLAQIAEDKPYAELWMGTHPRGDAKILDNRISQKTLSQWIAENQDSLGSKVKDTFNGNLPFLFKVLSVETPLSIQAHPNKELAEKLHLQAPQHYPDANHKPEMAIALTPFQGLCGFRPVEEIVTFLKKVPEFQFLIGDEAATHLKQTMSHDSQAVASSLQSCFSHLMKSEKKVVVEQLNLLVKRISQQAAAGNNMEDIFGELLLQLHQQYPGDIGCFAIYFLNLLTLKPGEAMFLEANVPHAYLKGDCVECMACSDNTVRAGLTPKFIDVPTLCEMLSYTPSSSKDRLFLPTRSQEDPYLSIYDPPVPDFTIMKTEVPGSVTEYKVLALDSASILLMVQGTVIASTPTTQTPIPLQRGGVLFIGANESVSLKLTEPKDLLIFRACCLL

[5] = blockers of HIV-1 envelope-mediated cell-cell fusion – cherry-pick, dose response (AID 652057); format: functional, cell-based
[6] = HIV-1 AD8 envelope cell-cell fusion blockers – cherry-pick, dose response (AID 652062); format: functional, cell-based;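 further: luciferase signal from cell-cell fusion driven by HIV-1 clade B AD8 Env; potency is for inhibitors of fusion seen as a drop in luminescence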
[7] = Luminescence Cell-Based Dose Retest to Confirm Inhibitors of Cancer Stem Cells. [Related pubchem assays (depositor defined):AID2717, AID2721]; format: functional; details: Homo sapiens
[8] = blockers of HIV-1 ZM109 envelope-driven cell-cell fusion – HeLa effector, CEM target cells, luciferase, cherry-pick, dose response (AID 652058); format: functional, cell-based;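 further: luciferase signal from HIV-1 Env mediated cell-cell fusion of effector and target cells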
[9] = viability loss in CEM21 cells – cell-based, CellTiter-Glo luminescence, cherry-picked, cytotoxicity control for viral fusion inhibitor project, dose response (AID 652042); format: functional;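 further: potency for signal decrease meaning cytotoxicity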
[10] = off-target signal loss in HeLa-CEM21 co-culture – HeLa F-luc CTL cells, cherry-picked, counter-screen for HIV-1 Env fusion inhibitor project, dose response (AID 652040); format: functional, cell-based;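 further: potency for signal decrease marking cytotoxic or nonspecific inhibition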
[11] = inhibition of ADAM10 peptide cleavage – biochemical, FRET peptide substrate, recombinant human ADAM10, selectivity assay for ADAM17 exosite inhibitor project, dose response (AID 743259);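 further: ADAM10 enzyme cleaving a FRET peptide substrate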
[12] = target: Disintegrin and metalloproteinase domain-containing protein 17 (Homo sapiens, UniProt P78536); assay: exosite inhibitors of ADAM17, dose response, biochemical (AID 743260)
Chain of Disintegrin and metalloproteinase domain-containing protein 17 (P78536 whole entry, the tested form may be a part): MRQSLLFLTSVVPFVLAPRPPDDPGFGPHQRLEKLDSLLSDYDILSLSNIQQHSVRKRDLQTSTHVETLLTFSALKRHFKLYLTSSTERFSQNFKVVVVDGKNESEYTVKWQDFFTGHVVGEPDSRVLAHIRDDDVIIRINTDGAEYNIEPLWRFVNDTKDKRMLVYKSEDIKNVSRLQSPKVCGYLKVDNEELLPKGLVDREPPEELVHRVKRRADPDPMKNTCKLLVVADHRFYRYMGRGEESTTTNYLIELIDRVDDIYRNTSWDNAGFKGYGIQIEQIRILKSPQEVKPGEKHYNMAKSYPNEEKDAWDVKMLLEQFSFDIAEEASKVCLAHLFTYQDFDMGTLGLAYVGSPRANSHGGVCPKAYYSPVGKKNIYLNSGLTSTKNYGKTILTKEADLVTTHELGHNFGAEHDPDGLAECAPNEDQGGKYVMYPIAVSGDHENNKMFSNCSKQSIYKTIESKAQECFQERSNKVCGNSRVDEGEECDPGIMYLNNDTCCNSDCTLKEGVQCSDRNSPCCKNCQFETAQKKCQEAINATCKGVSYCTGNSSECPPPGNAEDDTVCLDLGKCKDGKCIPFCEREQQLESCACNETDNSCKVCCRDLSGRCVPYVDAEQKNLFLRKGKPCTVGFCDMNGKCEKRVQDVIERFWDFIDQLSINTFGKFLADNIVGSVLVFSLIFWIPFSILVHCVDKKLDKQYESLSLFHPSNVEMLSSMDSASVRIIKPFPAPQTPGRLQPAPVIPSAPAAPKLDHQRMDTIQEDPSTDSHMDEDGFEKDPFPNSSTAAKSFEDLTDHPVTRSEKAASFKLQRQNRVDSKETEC

[13] = viability of uninfected HEp-2 cells – cell-based, HTS, cytotoxicity control for RSV inhibitor project, dose response (AID 2410); format: functional; details: human respiratory syncytial virus
[14] = target: T4, Protein skinhead-1 (Caenorhabditis elegans, UniProt P34707); format: functional
T4 sequence (P34707 whole entry): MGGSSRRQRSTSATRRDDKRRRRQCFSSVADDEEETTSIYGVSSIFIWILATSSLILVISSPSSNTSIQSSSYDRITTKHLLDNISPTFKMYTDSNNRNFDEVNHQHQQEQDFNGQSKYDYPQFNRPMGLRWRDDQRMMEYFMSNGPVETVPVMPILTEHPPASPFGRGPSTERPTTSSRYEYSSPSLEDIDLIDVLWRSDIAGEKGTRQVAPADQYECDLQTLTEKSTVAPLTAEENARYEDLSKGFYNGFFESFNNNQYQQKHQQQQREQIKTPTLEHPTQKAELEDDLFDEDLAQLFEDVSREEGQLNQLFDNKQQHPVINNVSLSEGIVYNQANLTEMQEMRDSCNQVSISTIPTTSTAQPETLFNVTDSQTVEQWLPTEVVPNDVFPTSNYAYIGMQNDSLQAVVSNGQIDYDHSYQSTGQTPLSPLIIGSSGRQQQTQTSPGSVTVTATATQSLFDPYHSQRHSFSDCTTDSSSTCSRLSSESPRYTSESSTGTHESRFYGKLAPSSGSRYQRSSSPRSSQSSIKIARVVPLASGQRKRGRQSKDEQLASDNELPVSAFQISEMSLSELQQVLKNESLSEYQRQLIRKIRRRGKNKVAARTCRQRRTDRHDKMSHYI

[15] = Dd2 malaria parasite growth inhibition potency – SYBR Green, dry powder samples, dose response (AID 1159566); format: functional, cell-based;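 further: potency for growth inhibition with lower SYBR green DNA signal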
[16] = growth inhibition of PfATP4-mutant resistant parasites – NITD609-resistant line, SYBR Green, dry powder, dose response (AID 1159571); format: functional, cell-based;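 further: parasites synchronized at ring stage by sorbitol before testing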
[17] = P. falciparum Dd2 growth inhibitors, dose response, SYBR Green, cherry-picked samples (AID 1159567); format: functional, cell-based
[18] = growth inhibition of yeast DHODH-expressing 3D7 parasites – SYBR Green, dry powder samples, dose response (AID 1159570); format: functional, cell-based;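 further: parasite growth measured after 72 hours of compound exposure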
[19] = viability loss in THP-1 monocytes – THP-1 cells, cytotoxicity control for Vif-APOBEC3G degradation inhibitor project, dose response (AID 1117359); format: functional; details: THP-1
[20] = viability of HCT116 lacking mutant beta-catenin – cell-based, human colon tumor, dose response (AID 1045); format: functional;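 further: HCT116 colon tumor cells with beta catenin knocked out; cells exposed to compound for 60 hours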
[21] = Trypanosoma cruzi growth suppression in host cells – NIH3T3 host cells, beta-gal luminescence, confirmation (AID 2044); format: functional, cell-based;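 further: intracellular parasites grown in NIH/3T3 mouse fibroblasts as host cells; luminescent beta-galactosidase reporter signal from transgenic T. cruzi replicating inside host cells; inhibitors lower the luminescence signal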
[22] = NIH3T3 cell viability loss – ATP luminescence, mouse fibroblasts, counter-screen, dose response (AID 2010); format: functional, cell-based;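 further: cells exposed to compound for about 90 hours before reading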
[23] = viability of PTEN-deleted HCT116 cells – cell-based, HCT116 PTEN knockout, dose response (AID 1047); format: functional;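 further: HCT116 colon tumor cells with PTEN knocked out; cells exposed to compound for 60 hours before readout; potency for loss of cell viability measured by luminescence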
[24] = target: T5, Microphthalmia-associated transcription factor (Homo sapiens, UniProt O75030); assay: reducers of TRPM1 reporter luminescence, concentration series – cell-based, SK-MEL-5, cherry-picked, set 3, MITF inhibitor project, dose response (AID 493073); format: functional;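 further: SK-MEL-5 melanoma cells with luciferase driven by the MITF target TRPM1 promoter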
T5 sequence (O75030 whole entry): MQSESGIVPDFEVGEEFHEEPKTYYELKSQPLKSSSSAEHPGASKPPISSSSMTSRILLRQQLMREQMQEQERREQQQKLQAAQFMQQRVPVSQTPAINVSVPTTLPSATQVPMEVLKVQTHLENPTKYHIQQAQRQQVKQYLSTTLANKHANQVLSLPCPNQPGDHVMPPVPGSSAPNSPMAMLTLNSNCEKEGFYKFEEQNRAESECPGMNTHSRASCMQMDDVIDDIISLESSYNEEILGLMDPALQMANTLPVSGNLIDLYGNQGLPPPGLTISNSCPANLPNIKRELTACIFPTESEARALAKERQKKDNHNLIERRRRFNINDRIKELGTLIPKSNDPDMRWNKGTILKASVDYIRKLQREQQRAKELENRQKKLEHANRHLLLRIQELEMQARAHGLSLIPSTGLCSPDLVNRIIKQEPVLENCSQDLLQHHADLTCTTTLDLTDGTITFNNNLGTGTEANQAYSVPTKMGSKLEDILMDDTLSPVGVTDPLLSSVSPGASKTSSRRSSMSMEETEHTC

Compound: COc1ccc(NC(=O)CSc2nnc(C)n2Cc2ccccc2)cc1
- IC50 [1]: > 12.5 µM (active)

Compound: Cc1cc(=O)c2c(O)c(O)ccc2o1
- IC50 [2]: 32.2 µM (active)
- IC50 [3]: 110 µM (active)
- IC50 [1]: > 100 µM (active)
- IC50 [4]: > 50 µM (not active)

Compound: CC(C)C[C@H](CO)N(Cc1ccccc1)S(=O)(=O)N(Cc1ccccc1)[C@@H](CO)CC(C)C
- AC50 [5]: 2.8 µM (active)
- AC50 [6]: 8.16 µM (active)
- AC50 [7]: 3.47 µM (active)
- AC50 [8]: 3.38 µM (active)
- AC50 [9]: 9.89 µM (active)
- AC50 [10]: 12.4 µM (active)

Compound: Cc1ccc(/N=C2\C(Cl)=C(O)OC2OC(=O)c2ccc(C)cc2)cc1 (stereo not drawn)
- IC50 [11]: > 7.73 µM (active)
- IC50 [12]: > 69.5 µM (inactive)

Compound: CCN(CC)S(=O)(=O)c1cc(NC(=O)Cc2ccc(S(=O)(=O)N3CCOCC3)s2)ccc1Cl
- IC50 [11]: 11.4 µM (inactive)
- IC50 [12]: > 69.5 µM (inactive)

Compound: O=C(NC1CCCCN(Cc2cccc(Cl)c2)C1=O)c1ccc(COc2ccccc2)cc1 (stereo not drawn)
- IC50 [11]: 20.7 µM (inactive)
- IC50 [12]: > 69.5 µM (inactive)

Compound: Cc1ccccc1-c1nc(S(=O)(=O)c2ccc(Br)cc2)c(NCc2cccnc2)o1
- IC50 [11]: > 69.5 µM (inactive)
- IC50 [12]: > 69.5 µM (inactive)
- CC50 [13]: 21.9 µM (active)

Compound: CN(c1ccccc1)c1nc2ccsc2c(=O)s1
- IC50 [14]: > 100 µM (inactive)

Compound: Cc1ccc(C(=O)OCc2cn3ccccc3n2)cc1
- IC50 [1]: > 100 µM (active)

Compound: CCCn1c(O)nnc1SCC(=O)c1ccc2c(c1)OCCO2
- IC50 [14]: > 100 µM (inactive)

Compound: O=C(Nc1ccccc1)N1CCCCN2[C@@H](CO)[C@H](c3ccc(C#Cc4cccnc4)cc3)[C@@H]2C1
- AC50 [15]: 0.552 µM (active)
- AC50 [16]: 0.573 µM (active)
- AC50 [17]: 0.633 µM (active)
- AC50 [18]: 0.476 µM (active)

Compound: COc1ccc(NC(=O)/C(C#N)=C/c2ccc(Sc3nncn3C)c([N+](=O)[O-])c2)cc1
- CC50 [19]: > 40 µM (active)
- IC50 [1]: > 100 µM (active)

Compound: COc1ccc(NC(=O)c2ccc3c(c2)OCO3)cc1Cl
- IC50 [14]: > 100 µM (inactive)

Compound: Nc1ccc(N=Nc2ccc(O)cc2)c(N)n1
- CC50 [19]: 25.8 µM (active)
- IC50 [2]: 8.44 µM (active)

Compound: c1coc(CNc2c3c(nc4ccccc24)CCC3)c1
- AC50 [6]: 32.9 µM (active)
- EC50 [20]: 27.1 µM (active)
- EC50 [21]: 2.41 µM (active)
- EC50 [22]: > 60 µM (not active)
- AC50 [9]: 65 µM (active)
- EC50 [23]: 22.5 µM (active)

Compound: O=C(COC(=O)Cc1ccc(Cl)cc1)NCc1ccco1
- CC50 [19]: > 40 µM (active)

Compound: CCn1c(/C=C/N(C)c2ccccc2)[n+](CC)c2cc(Cl)ccc21
- AC50 [24]: 6.86 µM (active)
- AC50 [6]: 9.72 µM (active)
- EC50 [21]: 0.286 µM (active)
- EC50 [22]: 21.5 µM (active)
- AC50 [8]: 59.3 µM (active)
- AC50 [9]: 35.5 µM (active)

Compound: Cc1cccc(COc2ccccc2C(=O)N(C)CC(=O)Nc2cccc(F)c2)c1
- IC50 [11]: 25.5 µM (inactive)
- IC50 [12]: > 69.5 µM (inactive)

Compound: Cc1cccc(C)c1N(CC(=O)Nc1cccc(N(C)S(C)(=O)=O)c1)S(C)(=O)=O
- IC50 [14]: > 100 µM (inactive)
